Data as given in PMC4919375, “Improved in vivo antitumor effect of a daunorubicin - GnRH-III bioconjugate modified by apoptosis inducing agent butyric acid on colorectal carcinoma bearing mice” (Investigational New Drugs, 2016).

What was measured:
liver = assay: Macroscopic liver toxicity (liver weight); format: in vivo, mouse; details: Dau 1 mg/kg i.v. weekly x7; for Liver weight on day 50 after tumor transplantation: relative to control, HT-29 bearing NSG mice, bioconjugates 15 then 7.5 mg Dau content/kg twice a week, mean
Procedure: (§1) Based on the results of the chronic toxicity study, we used only 1 mg (1.773 μmol)/kg free Dau, weekly, in the Dau treated group. Thirteen treatments were applied from the day 5 after tumor transplantation until the day 50 in the groups treated with the bioconjugates (every Monday and Thursday). The treatments were performed by i.v. (intravenous) or i.p. administration; the compounds were dissolved in distilled water (0.1 mL/10 g body weight).
(§2) The bioconjugates were administered at different doses during the treatment period. In the first five treatments, they were i.v. administered, at a dose of 28.435 μmol/kg body weight (15 mg Dau content in the bioconjugate/kg). From the 6th to the 13th treatment, they were i.p. administered at a dose of 14.217 μmol/kg body weight (7.5 mg Dau content in the bioconjugate/kg). The first five doses represented the initial round of treatments, which was followed by the maintenance therapy. In the maintenance treatments, 5 % glucose solution instead of distilled water was used, in order to minimize the harmful effects of tfa salts that were present in the lyophilized bioconjugates.
(§3) The mice from all groups were sacrificed by deadly overslept cocktail (0.3 mL/mouse concentrated nembutal (pentobarbitone) solution), on day 50 after tumor transplantation.

[1] = tested on: HT-29 orthotopic primary human colon carcinoma; assay: Tumor growth inhibition, orthotopic HT-29 human colon carcinoma in NSG mice; format: in vivo, mouse; details: orthotopic HT-29 in NSG mice, Dau 1 mg/kg i.v. weekly x7, 7 mice/group; for Tumor growth inhibition compared to the control group: tumor weight on day 50, bioconjugates 15 mg Dau content/kg i.v. x5 then 7.5 mg Dau content/kg i.p. x8, twice a week; for Tumor weight on day 50 after tumor transplantation: relative to control, bioconjugates 15 mg Dau content/kg i.v. x5 then 7.5 mg/kg i.p. x8, mean
From the text: Female NSG mice, weighing 24–28 g, were used in this study. The xenografts were established by subcutaneous injection of ca. 10^6 HT-29 (GnRH receptor positive) human colon carcinoma cells, which were from ATCC and cultured according to their standards. The mice with palpable tumors were killed by cervical-dislocation, disinfected with iodine, and the subcutaneous tumor was dissected out aseptically. Tumor pieces of 2–3 mm^3 were transplanted under aseptic conditions, orthotopically, into narcotized NSG mice.
For direct implantation, mice were anesthetized (narcotic mixture: tiletamine, zolazepam, xylazine, butorphanol) and the abdomen was sterilized with iodine and alcohol swabs. A small midline incision (0.5 cm) was made and the colorectal part of the intestine was exteriorized. Serosa of the site where the tumor pieces were to be implanted was removed. A piece of 2 mm^3 HT-29 human colon tumor was implanted on the top of the animal intestine; an 8/0 surgical (polypropylene) suture was used to suture it on the wall of the intestine. The intestine was returned to the abdominal cavity and the abdominal wall was closed with 4/0 surgical (polyglycolic acid) sutures. The wound was sterilized with iodine and alcohol swab again and the animals were kept in a sterile environment. For pain release and rehydration, mice were treated s.c. with 100 mg/kg algopyrine in Ringer solution containing 5 % glucose. On the next day, no signs of pain and stress of mice were observed.
as §1
In this experiment, 7 mice/group were used for the treatment with the bioconjugates (GnRH-III[^4Lys(Ac),^8Lys(Dau = Aoa)] and GnRH-III[^4Lys(Bu),^8Lys(Dau = Aoa)]) as well as in the control group.
The bioconjugates were administered at different doses during the treatment period. In the first five treatments, they were i.v. administered, at a dose of 28.435 μmol/kg body weight (15 mg Dau content in the bioconjugate/kg). From the 6th to the 13th treatment, they were i.p. administered at a dose of 14.217 μmol/kg body weight (7.5 mg Dau content in the bioconjugate/kg). The first five doses represented the initial round of treatments, which was followed by the maintenance therapy. […]
After that, the tumors were removed and the tumor weight was determined in all cases. […]

[2] = tested on: HT-29 orthotopic primary human colon carcinoma; assay: Vascularization in orthotopic HT-29 tumor tissues (CD31); format: in vivo, mouse; details: orthotopic HT-29 in NSG mice, CD31-positive endothelial cells; control 100 %; mean
Procedure: (§4) Before ending the experiment (30 min prior to sacrificing the mice), the tumor bearing animals were injected i.p. with 5-bromo-2 V-deoxyuridine (BrdU, 200 mg/kg; Sigma-Aldrich Kft, Budapest, Hungary). After 6 h, 5–7 μm thick tissue sections were excised from the newly frozen tumors and used for the detection of BrdU positive cells using an anti-BrdU monoclonal antibody (Becton Dickinson Hungary Kft., Budapest, Hungary), according to the manufacturer’s protocol. Positive cells were visualized with TRITC-conjugated anti-mouse IgG (1:100, Sigma). Endothelial cells were distinguished from tumor cells by treating the samples with rat anti-mouse CD31 antibody and labelled with biotinylated anti-rat IgG and streptavidin-FITC (Vector Laboratories, Burlingame, CA). The nuclei were stained with the Hoechst 33,342 dye (Molecular Probes, Eugene, OR). The number of labelled HT-29 tumor cells and the quantity of CD31-positive samples were determined in two different tumors by microscopic analysis of 6 independent regions. The vascularization extent of primary tumors was determined by microscopic analysis of two different living tumors, where four independent areas of living cells were counted and the percentage of separated endothelial cells covering a 10× magnification field of vision was calculated.

[3] = tested on: HT-29 orthotopic primary human colon carcinoma; assay: Proliferative index in orthotopic HT-29 tumor tissues (BrdU); format: in vivo, mouse; details: orthotopic HT-29 in NSG mice, BrdU positive cells; relative to control; mean
Procedure: as §4

heart = assay: Liver- and cardiotoxicity, histological examination and side effects; format: in vivo, mouse; details: at the applied doses; liver weight, hematoxylin and eosin histology of heart, light microscopy
From the text: The removed and fixed tissue samples were dehydrated in a graded series of ethanol, infiltrated with xylene and embedded into paraffin. Histological sections were stained with Harris hematoxylin and eosin (10:1, v/v, 1 % solutions) in acidified 70 % ethanol and mounted. The histological samples were examined under a light microscope (Olympus CH30, Olympus Optical, Japan).

[4] = tested on: HT-29 orthotopic primary human colon carcinoma; assay: Macroscopic metastases on different organs; format: in vivo, mouse; details: orthotopic HT-29 in NSG mice, day 50; 7 animals in each group
Procedure: as §1, §2, §3

NSG healthy mice = assay: Chronic toxicity of daunorubicin on NSG healthy mice; format: in vivo, mouse
Procedure: NSG adult male mice, weighing 26–34 g, were used. Daunorubicin was dissolved in distilled water at a concentration that allowed the dose to be given in a volume of 0.1 mL/10 g body weight. In this experiment, each group consisted of 3 mice, which were treated by intraperitoneal (i.p.) administration on days 1, 4, 8, 12 and 16. The toxicity was assessed on the basis of lifespan and body weight and the survival time was followed for 20 days.

[5] = tested on: HT-29 human colon cancer cells; details: cited from earlier work
From the text: (§5) In our research, lamprey GnRH-III (Glp-His-Trp-Ser-His-Asp-Trp-Lys-Pro-Gly-NH2, where Glp is pyroglutamic acid) has been employed as a key molecule for drug targeting. […] Thus, hormonal side effects in case of targeted tumor therapy using GnRH-III as a homing device are expected to be insignificant, this feature being important in the treatment of hormone independent tumors like colorectal cancer. Considering that lysine in position 8 of GnRH-III can be us ...

GnRH receptor = details: butyrated compared with acetylated bioconjugate; cited from earlier work
From the text: as §5

[6] = butyrated version compared with acetylated; previous in vitro studies; cited from earlier work
From the text: In our research, GnRH-III peptide was mainly employed as a targeting moiety, due to its low endocrine effect in mammals and significant antiproliferative effect on different types of cancer cells. […] However, the efficacy of the bioconjugates was highly dependent on the tumor type and whether this was subcutaneously or orthotopically developed in mice. Orthotopically developed tumors represent the ...

| Compound | Liver weight on day 50 after tumor transplantation (liver) | Tumor growth inhibition compared to the control group [1] | Tumor weight on day 50 after tumor transplantation [1] | Proliferation index (%) [3] | Metastasis on diaphragm, animals affected/animals in group [4] | Metastasis on diaphragm, percent of animals [4] | Metastasis on liver, animals affected/animals in group [4] | Metastasis on liver, percent of animals [4] | Metastasis on lung, animals affected/animals in group [4] | Metastasis on lung, percent of animals [4] | Metastasis on lymph node, animals affected/animals in group [4] | Metastasis on pancreas, animals affected/animals in group [4] | Metastasis on pancreas, percent of animals [4] | Metastasis on spleen, animals affected/animals in group [4] | Metastasis on spleen, percent of animals [4] | also measured |
| --- | --- | --- | --- | --- | --- | --- | --- | --- | --- | --- | --- | --- | --- | --- | --- | --- |
| COc1cccc2c1C(=O)c1c(O)c3c(c(O)c1C2=O)C[C@@](O)(C(C)=O)C[C@@H]3O[C@H]1C[C@H](N)[C@H](O)[C@H](C)O1 [Daunorubicin] | 89.1% | about 30% | 70.3% | 98.6% | 3/7 | 42.9% | 7/7 | 100% | 7/7 | 100% | 4/7 | 0/7 | 0% | 0/7 | 0% | Decrease of average liver weight (liver; vs control, day 50, not significant): about 11%; Vascularization (number of blood vessels), to the control [2]: 112%; Liver- or cardiotoxicity (heart): neither the bioconjugates nor the free daunorubicin showed any liver- or cardiotoxicity; Day on which the first animal died (NSG healthy mice; 1 mg/kg i.p. on days 1, 4, 8, 12 and 16, NSG healthy male mice, 3 mice/group, experiment stopped on day 20): 20 days; Mice died (NSG healthy mice; 2 mg/kg i.p. on days 1, 4, 8, 12 and 16, died on day 13 after the fourth treatment, NSG healthy male mice, 3 mice/group): 2 of 3; Body weight change (NSG healthy mice; 1 or 2 mg/kg i.p. on days 1, 4, 8, 12 and 16, both doses, NSG healthy male mice): significant loss of weight; Body weight of the animals at the end (NSG healthy mice; decreased from ~30 g during 20 days, i.p. on days 1, 4, 8, 12 and 16, NSG healthy male mice): ~ 20 g; Maximum tolerated dose (NSG healthy mice; immunodeficient tumor bearing mice): 1–2 mg/kg/week |
| GnRH-III[^4Lys(Bu),^8Lys(Dau = Aoa)] | 105.0% | ~ 40% | 60.6% | 84.5% | 3/7 | 42.9% | 7/7 | 100% | 7/7 | 100% | 3/7 | 0/7 | 0% | 1/7 | 14.3% | IC50 [5]: 2200 ± 600 nM; Binding to the GnRH receptor (affinity) (GnRH receptor): higher affinity; Cellular uptake [6]: higher receptor binding affinity and cellular uptake; Metastasis on lymph node, percent of animals [4]: 42.9% |
